ChEMBL document CHEMBL5728357, “Small molecule inhibitors of lactate dehydrogenase and methods of use thereof” (2021)
Where “and” joins values, the source holds several entries; their conditions need not be identical. Equal entries are not always repeated.

Experiment: Biochemical Assay: Test compounds were placed in a Greiner Bio-One (Monroe, N.C.) 1536-well black solid bottom assay plate. 200 millimolar (mM) Tris HCl, pH 7.4, 100 micromolar […] EDTA and 0.01% TWEEN-20™, final concentration, was used as the assay buffer. The LDHA reagent was 2 nanomolar (nM) Human LDHA (Meridian Life Science, Inc., Memphis, Tenn.), final concentration, in assay buffer.

| SMILES | IC50 |
| --- | --- |
| NS(=O)(=O)c1ccc(Cc2c(-c3cccc(-c4ccccc4)c3)nn(-c3nc(C(=O)O)cs3)c2CCC2CC2)cc1 | < 100 nM |
| C/C=C/c1cc(-c2nn(-c3nc(C(=O)O)cs3)c(CC3CC3)c2Cc2ccc([S+](N)(=O)[O-])c(F)c2)ccc1F | < 100 nM |
| N[S+](=O)([O-])c1ccc(Cc2c(-c3ccc(F)c(C(F)(F)F)c3)nn(-c3nc(C(=O)O)cs3)c2CC2CC2)cc1F | < 100 nM |
| CC(C)=Cc1cc(-c2nn(-c3nc(C(=O)O)cs3)c(CC3CC3)c2Cc2ccc([S+](N)(=O)[O-])c(F)c2)ccc1F | < 100 nM |
| CCOC(=O)c1csc(-n2nc(-c3ccc(F)c(C#CC4CCCC4)c3)c(Cc3cccc([S+](N)(=O)[O-])c3)c2CC2CC2)n1 | > 57000 nM |
| COc1cccc(-c2cccc(-c3nn(-c4nc(C(=O)O)cs4)c(C4CC4)c3Cc3ccc([SH+](N)[O-])c(F)c3)c2)c1 (stereo not given) | < 100 nM |
| C=C(C)c1cc(-c2nn(-c3nc(C(=O)O)cs3)c(CC3CC3)c2Cc2ccc([S+](N)(=O)[O-])c(F)c2)ccc1F | < 100 nM |
| CCOC(=O)c1csc(-n2nc(-c3cccc(-c4ccc(C)cc4)c3)c(Cc3ccc([SH+](=O)[O-])c(F)c3)c2CC2CC2)n1 | in the range around 29000 nM and > 57000 nM |
| N[S+](=O)([O-])c1ccc(Cc2c(-c3ccc(F)c(/C=C/C4CC4)c3)nn(-c3nc(C(=O)O)cs3)c2CC2CC2)cc1F | < 100 nM |
| N[S+](=O)([O-])c1ccc(Cc2c(-c3ccc(F)c(-c4ccc(F)cc4)c3)nn(-c3nc(C(=O)O)cs3)c2CC2CC2)c(F)c1 | < 100 nM |
| N[S+](=O)([O-])c1ccc(Cc2c(-c3ccc(F)c(/C=C/C4CCCC4)c3)nn(-c3nc(C(=O)O)cs3)c2CC2CC2)cc1F | < 100 nM |
| Cc1ccc(-c2cccc(-c3nn(-c4nc(C(=O)O)cs4)c(CC4CC4)c3Cc3ccc([SH+](N)[O-])cc3F)c2)cc1 (stereo not given) | < 100 nM |
| Cc1ccc(-c2cc(-c3nn(-c4nc(C(=O)O)cs4)c(CC4CC4)c3Cc3ccc([SH+](N)[O-])c(F)c3)ccc2F)cc1 (stereo not given) | < 100 nM |
| CC#Cc1cccc(-c2nn(-c3ncc(C(=O)OCC)s3)c(CC3CC3)c2Cc2ccc([SH+](N)[O-])c(F)c2)c1 (stereo not given) | in the range around 29000 nM |
| NS(=O)(=O)c1ccc(Cc2c(CC3CC3)nn(-c3nc(OC=O)cs3)c2-c2cc(F)cc(-c3cccc(F)c3)c2)cc1 | in the range around 29000 nM |
